{
  "source": "patent US9095616B2",
  "about": "“Caged platinum nanoclusters for anticancer chemotherapeutics” (priority 2013, dated 2015)",
  "key": {"MDA-MB-231": {"test_system": "MDA-MB-231", "test": "MTT cytotoxicity", "type": "cell-based, human", "conditions": "MDA-MB-231, 3 d", "description": "Cells of the MDA-MB-231 line (Bioresource Collection and Research Center, Taiwan) were cultured in RPMI 1640 medium supplemented with 10% fetal bovine serum under 5% CO2 atmosphere at 37° C. Twenty-four-well cell culture plates were inoculated with 1×10^5 cells/well and kept at 37° C. for 24 h. The culture medium was changed in the presence of various concentrations of different treatments ([…] alone, carboplatin, cisplatin, and CPN) in culture medium (three replicates). The tests were performed for 3 d without changing the medium. After the overlaying cell-culture medium was removed, the cells were incubated with 3-(4,5-dimethylthiazol-2-yl)-2,5-diphenyltetrazolium bromide (MTT, Sigma, Mo. USA) at 37° C. for 1 h. After treatment, the fomazan product from MTT was dissolved in DMSO and quantified using a conventional ELISA reader at 570 nm. For calibration, a blank test was performed in a 24-well plate under the same conditions."}, "MDA-MB-231 cell line": {"test_system": "MDA-MB-231 cell line", "test": "ROS assay using CM-H2DCFDA", "type": "cell-based, human", "conditions": "3 h", "description": "MDA-MB-231 cell line was cultured in RPMI 1640 medium (media were supplemented with 10% fetal bovine serum) under 5% CO2 atmosphere at 37° C. The cells were inoculated with 1×10^5 cells per well in a 6-well cell-culture plate and cultivated at 37° C. for 24 h. Then, the culture medium was changed with the presence of various treatments, including […] alone, the CPN, cisplatin, and 0.03% H2O2 in the culture medium. The tests were performed for 3 h without changing the medium. After removal of the supernatant of cell culture medium, the cells were isolated for ROS assay using CM-H2DCFDA from INVITROGENTM."}, "[1]": {"test": "Maximal tolerated dose (Table 1)", "type": "in vivo", "conditions": "IV injection", "description": "The therapeutic efficacy of CPN using subcutaneous breast cancer xenograft in mice was evaluated by intratumoral (IT) injection. The maximal tolerated dose (MTD) of various drugs, such as CPN and cisplatin, was described in Table 1. […] Thus, the programmed death pathway of CPN-treated cells might be similar to that of cisplatin-treated cells. We verified whether the CPN could be injected into blood vessels to exert tumor-inside activation for anticancer chemotherapeutics. Thus, the CPN was extra coated with a cleavable PEG layer to prevent protein adhesions after intravenous (i.v.) injection to form a double-caged PN (DCPN). […] To render the DCPN with a targeting function, an iRGD tumor-penetrating peptide was co-administered with the DCPN into subcutaneous xenograft nude mice of breast cancer by IV administration. The tumor size in each mouse was grown to about 150 mm^3 to facilitate DCPN delivery. Additionally, the DCPN and one of the control groups (G2NH2 coated with a PEG corona) were pre-attached with as NIR dye, cy5.5, for real-time tracking alter administration. […] Consecutive tissue sections front four groups, including the control, cisplatin, G2NH2, and DCPN groups were examined histologically by hematoxylin and eosin (H&E) staining at the end point, and the slides were evaluated by an independent pathologist (FIG. 16). […]"}, "[2]": {"test_system": "subcutaneous breast cancer xenograft", "test": "Tumor suppression after IT injection", "type": "in vivo, Balb/c nude mice", "conditions": "IT injection once a week for 3 weeks, vs PBS and G2NH2", "description": "(§1) Seven-week-old female Balb/c nude mice (16-20 g) were kept on a 12-h light/12-h dark cycle at 24±2° C. and 50±10% relative humidity, with free access to water and food. They were subcutaneously injected with […] cells/mouse to establish a breast tumor model. Tumors were measured by a digital Vernier caliper across each tumor's longest (a) and shortest (b) diameter, and tumor volume (V) was calculated by the formula V=0.5a×b^2. When the tumor size reached approximately 60 mm^3 and 150 mm^3, CPN and DCPN were administered by IT and IV injection, respectively. The stud of comparative efficiency in tumor suppression was performed. The mice were treated with CPN via IT injections once a week for a total of 3 weeks. Similarity. DCPN was administered to mice via IV once a week for 4 weeks. The injection volume was 5 μL/g body weight and the tumor size was calculated every 2 to 3 days. After the mice were sacrificed, tumors and blood were collected and placed in EDTA glass tubes."}, "[3]": {"test_system": "subcutaneous breast cancer xenograft", "test": "TUNEL assay of tumor tissue", "type": "in vivo, Balb/c nude mice", "conditions": "after treatment for 48 hours", "description": "Terminal dexoxynucleotidyl […]-mediated dUTP nick end labeling (TUNEL) assay was used for in situ detection of apoptotic cell death. The frozen sections of tumor tissue (4 μm thick) were warmed up to room temperature. The slides were washed 3 times with PBS to remove OCT (one of tumor's embedded medium for frozen tissues). The labeling procedures followed the standard protocol of this kit. These slides were stained with 3,3'-diaminobenzidne (DAB, Thermo, S21024-2), then counterstained with hematoxylin and mounted onto glass coverslisps before monitoring by light microscopy."}, "[4]": {"test_system": "subcutaneous breast cancer xenograft", "test": "Active caspase-3 immunohistochemistry of tumor tissue", "type": "in vivo, Balb/c nude mice", "description": "The frozen sections of tumor tissue (4 μm thick) were warm up to room temperature washed 3 times with PBS (5 min/time), and fixed with freshly prepared 4% paraformaldehyde in PBS for 15 minutes. The fixed sections were immersed in a polyclonal rabbit anti-mouse active caspase-3 antibody (Abeam Inc., ab2302, 5 μg/mL in 10% BSA of PBS, 50 μL/sample) at 4° C. for overnight, followed by washing with PBS (three times, 15 min/time) and incubating with peroxidase-conjugated polyclonal goat anti-rabbit antibodies (Abeam Inc., ab6721-200, 1:500 (v/v) in PBS, 100 μL/sample) at room temperature for 2 hours. These slides were first stained with DAB, subsequently counterstained with hematoxylin, and mounted with glass coverslisps before monitoring by light microscopy."}, "[5]": {"test_system": "subcutaneous xenograft of breast cancer", "test": "Tumor suppression after IV injection with iRGD co-administration", "type": "in vivo, Balb/c nude mice", "conditions": "IV 16.6 μmol/kg at 7-day intervals, 4 weeks, iRGD co-administered, vs PBS and G2NH2", "description": "as §1\nThe therapeutic efficacy of CPN using subcutaneous breast cancer xenograft in mice was evaluated by intratumoral (IT) injection. […] Consecutive tissue sections front four groups, including the control, cisplatin, G2NH2, and DCPN groups were examined histologically by hematoxylin and eosin (H&E) staining at the end point, and the slides were evaluated by an independent pathologist (FIG. 16). […]"}},
  "data": [
    {"compound": "N.N.O=C([O-])C1(C(=O)[O-])CCC1.[Pt+2]", "note": "[carboplatin]", "values": [
      {"measurement": "IC50", "setting": "MDA-MB-231", "value": 35, "unit": "µg/mL"}
    ]},
    {"compound": "N.N.[Cl][Pt][Cl]", "note": "[cisplatin]", "values": [
      {"measurement": "IC50", "setting": "MDA-MB-231", "value": 7, "unit": "µg/mL"},
      {"measurement": "ROS production", "setting": "MDA-MB-231 cell line", "value": "no significant ROS increase or decrease"},
      {"measurement": "maximal tolerated dose (MTD)", "setting": "[1]", "value": 16.6, "unit": "µmol/kg"},
      {"measurement": "tumor suppression", "setting": "[2]", "value": "notably efficacious in tumor suppression"},
      {"measurement": "TUNEL staining (broken DNA strands)", "setting": "[3]", "value": "TUNEL-positive staining"},
      {"measurement": "apoptosis by active caspase-3 immunostaining", "setting": "[4]", "value": "can indeed cause apoptosis"},
      {"measurement": "tumor growth / tumor volume", "setting": "[5]", "value": "can indeed cause tumors to shrink"}
    ]}
  ]
}
